Assay results published in US12129244B2, “Modulators of Mas-related G-protein receptor X2 and related products and methods” (Escient Pharmaceuticals, Inc., priority 2022, dated 2024).
pIC50: −log10 of the molar value.

Columns and labels:
human MRGPRX2 = target: T1, human MRGPRX2 (Homo sapiens, UniProt Q96LB1); test: MRGPRX2 activity: IP-One HTRF antagonist assay in CHO cells versus Cortistatin-14; assay type: cell-based; details: CHO cells stably expressing human MRGPRX2; versus 0.3 uM Cortistatin-14 agonist; IP-1 HTRF
T1 construct: expressed in transfected cells
T1 sequence (Q96LB1 1-330): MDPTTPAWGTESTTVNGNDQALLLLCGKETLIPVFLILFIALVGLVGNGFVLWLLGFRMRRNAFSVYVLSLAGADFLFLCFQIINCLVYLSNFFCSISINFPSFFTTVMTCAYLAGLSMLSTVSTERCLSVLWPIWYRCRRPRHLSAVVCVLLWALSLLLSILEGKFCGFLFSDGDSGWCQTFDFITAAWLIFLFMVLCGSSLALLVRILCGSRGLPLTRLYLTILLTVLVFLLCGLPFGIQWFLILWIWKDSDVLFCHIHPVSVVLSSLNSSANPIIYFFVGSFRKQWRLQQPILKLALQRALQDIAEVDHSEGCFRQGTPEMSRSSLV
Method: CHO cells stably transfected to express human MRGPRX2 were maintained in an incubator at 37° C. with 5% CO2 and grown in F12 (HAM) media with 10% fetal bovine serum (FBS), 1% Glutamax, 1% penicillin/streptomycin, 800 μg/mL Geneticin (G418), and 300 μg/mL Hygromycin B.
Cells were plated in a 384-well assay plate at 20,000 cells per well in 12 μL of Opti-MEM and kept in an incubator overnight. On the day of the assay, compounds solubilized at 10 mM in DMSO were added as a 10-point curve (30 uM final top concentration with 1:3 serial dilutions) using a Tecan D300E digital dispenser. Agonists were diluted in assay buffer (final concentrations of 5.7 mM Tris-HCl, 43 mM NaCl, 50 mM LiCl, pH=8) and 2 μL of the agonist Cortistatin-14 (CPC Scientific, catalog CORT-002) are added to each well. Final concentrations of agonists were 0.3 μM Cortistatin. Final concentrations of DMSO were kept consistent across the plate. Plates were incubated in the dark for 1 h at 37° C. and then for 1 h at room temperature. IP-1 standards and HTRF detection reagents were added according to the IP-One-Gq Kit purchased from Cisbio (part number 62IPAPEJ) and incubated in the dark for 1 h at room temperature. The plate was read on a Molecular Devices SpectraMax iD5 plate reader. The HTRF ratio was calculated from the raw data and graphed using GraphPad Prism to calculate an IC50 value for each compound.
The activity ranges are denoted as follows: “+++++” denotes antagonist activity <100 nM; “++++” denotes antagonist activity between 100 and 500 nM; “+++” denotes activity between 501 and 1000 nM; “[…]” denotes activity between 1001 and 2500 nM; and “+” denotes activity >2500 nM

Human LAD2 cells = test: Mast Cell Beta-Hexosaminidase Release Assay; assay type: cell-based; details: 500 nM Cortistatin-14, read-out: MRGPRX2 Antagonist Activity
Method: Human LAD2 cells (NIH) were maintained in an incubator at 37° C. with 5% CO2 and cultured in StemPro-34 serum-free media (Gibco 10639011) supplemented with 2 mM L-glutamine, 100 U/ml penicillin, […] streptomycin and 100 ng/ml SCF (Invitrogen PEP0860), at a concentration of 2-5×10^5 cells/mL, with hemidepletion every 1-2 weeks.
Cells were transferred to SCF-Free medium at 2.5×10^5 cells/mL and kept in an incubator overnight. On the day of the assay, cells were washed twice in Assay Buffer (final concentrations 10 mM HEPES, 137 mM NaCl, 5.6 mM D-glucose, 2.7 mM KCl, 1 mM MgCl, 1.8 mM CalCl2, 0.4 mM Na2HPO4·7H2O, 0.04% BSA, pH=7.4) and plated in a 96-well v-bottom plate at 20,000 cells per well in 80 μL Assay Buffer. Antagonist compounds solubilized at 10 mM in DMSO were diluted in Assay Buffer to 10× final desired concentrations as a 10-point curve (10 μM final top concentration with 1:3 serial dilutions) and 10 μL added per well. Plates were then incubated for 1 hour at 37° C. Agonists were diluted in Assay Buffer to 10× desired concentrations and 10 μL of the appropriate agonist added to each well. The final concentration of Cortistatin-14 (Tocris 3374) used in antagonist assays was 500 nM. Final concentrations of DMSO were kept consistent across the plate. Plates were then incubated in a warm air oven for 30 minutes at 37° C., followed by centrifugation at 4° C. for 5 minutes at 450×g. 50 μL supernatant from each well was then transferred to a 96-well flat bottom plate containing 100 μL substrate solution per well (3.5 mg/mL p-Nitrophenyl-N-acetyl-β-D-glucosaminide (Sigma 487052) in Citrate Buffer containing a final concentration of 40 mM Citric Acid, 20 mM Na2HPO4·7H2O, pH=4.5). To the cell pellets left in the remaining assay buffer, 150 μL 0.1% Triton-X-100 was then added to each well, resuspended by pipetting up and down, and 50 μL cell lysates transferred to a second 96-well flat bottom plate containing 100 μL substrate solution per well. Plates containing transferred supernatant and cell lysates were then incubated in a warm air oven for 90 minutes at 37° C. After incubation, 50 μL of 400 mM Glycine buffer (pH 10.7) was added into each well and the plate was read on a Molecular Devices SpectraMax iD5 plate reader (absorbance at 405 nm with reference filter at 620 nm). After background subtraction, the percentage degranulation (percent beta-hexosaminidase release) was calculated as 100×(supernatant values)/(supernatant+lysate values), followed by analysis using GraphPad Prism software to calculate an IC50 value for each compound.
The activity ranges are denoted as follows: “+++++” denotes antagonist activity <100 nM; “++++” denotes antagonist activity between 100 and 500 nM; “+++” denotes activity between 501 and 1000 nM; “++” denotes activity between 1001 and 2500 nM; and “+” denotes activity >2500 nM.

[1] = Mouse Pharmacokinetics Studies (50 mg/kg oral gavage, plasma LC-MS/MS); assay type: in vivo; details: Male C57BL/6 mice, non-fasted; for AUC(0-t) / Cmax / Tmax: mouse; for Tmax: read-out: PK: Tmax
Method: Compounds were formulated in 5% DMSO, 5% Solutol, and 90% PBS without Ca and Mg (pH 7.4) at a concentration of 5 mg/mL. Male C57BL/6 mice (n=3/compound) were administered a 50 mg/kg dose of each compound by oral gavage under a non-fasted condition. Blood samples were collected via the saphenous vein onto K2-EDTA at 0.25, 0.5, 1, 2, 4, 8 and 24 hours after dosing, and plasma was prepared and stored at −80° C. until analysis. Plasma sample preparation for analysis was done by protein precipitation using acetonitrile (including Verapamil as an internal standard) followed by centrifugation. Compound concentrations were determined in extracted plasma using LC-MS/MS relative to a 12-point standard curve covering the 1 to 4000 nM range. Non-compartmental analysis using Phoenix WinNonlin was used to estimate pharmacokinetic parameters including area under the curve, clearance, and half-life. The administered dose was confirmed by analysis of residual dosing material by UPLC-UV relative to a single point calibration sample.

| pIC50 (human MRGPRX2) | pIC50 (Human LAD2 cells) | AUC 0-24 [1] [µM·h] | AUC(0-t) [1] [µM·h] | Cmax [1] [µM] | Tmax [1] [h] | SMILES |
| --- | --- | --- | --- | --- | --- | --- |
| > 7.00 | > 7.00 | – | – | – | – | CS(=O)(=O)Nc1cccc(C(=O)N[C@@H]2CCC[C@H](Nc3cc(C(F)(F)F)nc4ccc(Cl)cc34)C2)c1 (stereo in doubt) [Example 14, N-((1R,3S)-3-((6-chloro-2-(trifluoromethyl)quinolin-4-yl)amino)cyclohexyl)-3-(methylsulfonamido)benzamide] |
| – | > 7.00 | 78 | 78 | 6.1 | 8 | COc1ccc(C(=O)N[C@@H]2CCC[C@H](Nc3cc(C(F)(F)F)nc4ccc(Cl)cc34)C2)cc1 [Example 1, N-((1R,3S)-3-((6-chloro-2-(trifluoromethyl)quinolin-4-yl)amino)cyclohexyl)-4-methoxybenzamide] |
| > 7.00 | 6.30 to 7.00 | 83 | 83 | 13 | 0.83 | COc1ccc(C(=O)N[C@@H]2CCC[C@H](Nc3cc(C(F)(F)F)nc4ccc(C)cc34)C2)cc1 [Example 1-3] |
| – | < 5.60 | 650 | 650 | 48 | 8 | O=C(N[C@@H]1CCC[C@H](Nc2cc(C(F)(F)F)nc3ccccc23)C1)c1ccc(F)cc1 [Example 1-8] |
| – | 5.60 to 6.00 | 230 | 230 | 30 | 3.3 | N#Cc1cccc(C(=O)N[C@@H]2CCC[C@H](Nc3cc(C(F)(F)F)nc4ccccc34)C2)c1 [Example 3-4] |
| > 7.00 | > 7.00 | – | – | – | – | O=C(N[C@@H]1CCC[C@H](Nc2cc(C(F)(F)F)nc3ccc(Cl)cc23)C1)c1cccc2ncsc12 [Example 4-225] |
| > 7.00 | > 7.00 | – | – | – | – | CNc1ccc(C(=O)N[C@@H]2CCC[C@H](Nc3cc(C(F)(F)F)nc4ccc(F)cc34)C2)cc1 [Example 4-303] |
| > 7.00 | > 7.00 | – | – | – | – | CCS(=O)(=O)Nc1cccc(C(=O)N[C@@H]2CCC[C@H](Nc3cc(C(F)(F)F)nc4ccc(F)cc34)C2)c1 [Example 4-304] |
| > 7.00 | > 7.00 | 640 | 640 | 61 | 1.3 | Cn1cc(C(=O)N[C@@H]2CCC[C@H](Nc3cc(C(F)(F)F)nc4ccc(Cl)cc34)C2)cn1 [Example 4-400] |
| > 7.00 | > 7.00 | 140 | 140 | 11 | 4 | COc1ccc(C(=O)N[C@@H]2CCC[C@H](Nc3cc(C(F)(F)F)nc4ccc(Cl)cc34)C2)cn1 [Example 4-414] |
| > 7.00 | > 7.00 | – | – | – | – | O=C(N[C@@H]1CCC[C@H](Nc2cc(C(F)(F)F)nc3ccc(Cl)cc23)C1)c1ccc(B(O)O)cc1 [Example 4-430] |
| > 7.00 | 6.30 to 7.00 | – | – | – | – | O=C(N[C@@H]1CCC[C@H](Nc2cc(C(F)(F)F)nc3ccc(Cl)cc23)C1)N1CC2(CC2)C1 [Example 8-9] |
| – | > 7.00 | 140 | 140 | 36 | 1 | Nc1ncc(C(=O)N[C@@H]2CCC[C@H](Nc3cc(C(F)(F)F)nc4ccc(Cl)cc34)C2)cn1 [Example 15, 2-amino-N-[(1R,3S)-3-{[6-chloro-2-(trifluoromethyl)quinolin-4-yl]amino}cyclohexyl]pyrimidine-5-carboxamide] |
| > 7.00 | > 7.00 | 150 | 150 | 13 | 0.5 | O=C(N[C@@H]1CCC[C@H](Nc2cc(C(F)(F)F)nc3ccc(Cl)cc23)C1)c1cn(CC(F)(F)F)nc1Cl [Example 30, 3-chloro-N-((1R,3S)-3-((6-chloro-2-(trifluoromethyl)quinolin-4-yl)amino)cyclohexyl)-1-(2,2,2-trifluoroethyl)-1H-pyrazole-4-carboxamide] |
| > 7.00 | > 7.00 | 740 | 740 | 74 | 1.7 | CC(C)(O)Cn1cc(C(=O)N[C@@H]2CCC[C@H](Nc3cc(C(F)(F)F)nc4ccc(Cl)cc34)C2)c(Cl)n1 [Example 31, 3-chloro-N-[(1R,3S)-3-[[6-chloro-2-(trifluoromethyl)-4-quinolyl]amino]cyclohexyl]-1-(2-hydroxy-2-methylpropyl)pyrazole-4-carboxamide] |
| > 7.00 | > 7.00 | 390 | 390 | 39 | 4.7 | N#Cc1nn(CC(F)(F)F)cc1C(=O)N[C@@H]1CCC[C@H](Nc2cc(C(F)(F)F)nc3ccc(Cl)cc23)C1 [Example 32, N-[(1R,3S)-3-[[6-chloro-2-(trifluoromethyl)-4-quinolyl]amino]cyclohexyl]-3-cyano-1-(2,2,2-trifluoroethyl)pyrazole-4-carboxamide] |
